The results in this text go back to patent US9839701B2, “Aromatic amino acid derivative and positron emission topography (PET) probe using the same” (OSAKA UNIVERSITY, priority 2013, dated 2017).

For this assay, the target named is T1, human LAT1 (Homo sapiens, UniProt Q01650).
T1 construct: expressed in transfected cells
Nature of the assay: Promoting effect on amino acid efflux from human LAT1 stably expressing cell line. It counts as cell-based. As for the experimental part:
In the same manner as in Example 3, the human LAT1 stably expressing cell line and the human LAT2 stably expressing cell line were seeded on separate collagen-coated 24-well plates, and after 48 hours, the cells were washed with an uptake buffer prewarmed at 37° C. An uptake buffer supplemented with 1 μM of [^14C]L-leucine or [^14C]L-alanine was added to each well, and [^14C]L-leucine or [^14C]L-alanine uptake by the cells was allowed to proceed at 37° C. for 10 minutes. […] The radioactivity in each supernatant was measured as the radioactivity of the amino acid released from the cells. Subsequently, 500 μL of 0.1 M NaOH was added to each well for cell lysis, 20 μL of the lysate was used for the measurement of the protein concentration, and the remaining lysate was used for the measurement of the residual radioactivity in the cells. The sum of the residual radioactivity and the released radioactivity in each experiment was checked to confirm that there was no great difference in the total radioactivity incorporated into the cells at the preloading among the experiments. […]
Based on the measured values of amino acid efflux at the indicated concentrations of each compound, the Km value for amino acid efflux from the human LAT1 stably expressing cell line and the Km value for amino acid efflux from the human LAT2 stably expressing cell line were calculated and shown in Table 5. […]

T1 sequence (Q01650 whole entry): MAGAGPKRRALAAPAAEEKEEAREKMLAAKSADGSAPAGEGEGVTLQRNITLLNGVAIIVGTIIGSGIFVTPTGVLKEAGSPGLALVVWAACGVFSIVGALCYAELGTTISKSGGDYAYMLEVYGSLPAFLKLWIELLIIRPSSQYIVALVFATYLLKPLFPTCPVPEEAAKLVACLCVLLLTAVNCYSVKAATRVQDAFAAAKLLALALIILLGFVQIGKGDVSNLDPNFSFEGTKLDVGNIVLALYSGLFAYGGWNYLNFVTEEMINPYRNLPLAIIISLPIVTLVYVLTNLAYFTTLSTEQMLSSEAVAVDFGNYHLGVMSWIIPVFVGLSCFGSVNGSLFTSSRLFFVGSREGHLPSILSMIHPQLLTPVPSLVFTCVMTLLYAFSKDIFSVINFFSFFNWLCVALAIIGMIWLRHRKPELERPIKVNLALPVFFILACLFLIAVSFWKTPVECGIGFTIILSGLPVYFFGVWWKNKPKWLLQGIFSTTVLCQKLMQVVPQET
T1 sequence (P08195 102-630 partner): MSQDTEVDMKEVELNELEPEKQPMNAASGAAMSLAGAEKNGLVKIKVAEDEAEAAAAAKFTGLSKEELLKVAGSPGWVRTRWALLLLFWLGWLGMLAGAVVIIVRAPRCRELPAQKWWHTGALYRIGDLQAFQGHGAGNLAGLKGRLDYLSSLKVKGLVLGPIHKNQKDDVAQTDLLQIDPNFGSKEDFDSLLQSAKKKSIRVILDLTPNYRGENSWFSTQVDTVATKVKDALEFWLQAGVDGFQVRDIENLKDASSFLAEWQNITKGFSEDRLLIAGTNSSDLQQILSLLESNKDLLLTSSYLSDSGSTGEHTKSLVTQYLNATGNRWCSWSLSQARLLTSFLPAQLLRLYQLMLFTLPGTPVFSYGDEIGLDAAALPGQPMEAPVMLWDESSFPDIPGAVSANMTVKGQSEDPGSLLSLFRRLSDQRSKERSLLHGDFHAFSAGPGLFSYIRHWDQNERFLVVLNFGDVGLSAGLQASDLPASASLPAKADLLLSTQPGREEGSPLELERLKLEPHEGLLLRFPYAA

Turning to `NC(Cc1cc(OCCF)ccc1I)C(=O)O` (centres unmarked) [Example 1, 2-amino-3-(5-(2-fluoroethoxy)-2-iodophenyl)propanoic acid], for the setting “10 μM, 1 min, FIG. 2”, the “Promoting effect on amino acid efflux via human LAT1, compared with FAMT” value is recorded as “twice or more higher than that of FAMT”. The “Affinity for human LAT1 relative to FAMT” value (from Km values) is recorded as at least 10 times.
